From patent US10550110B2, “Tetrahydroquinoline sulfonamide derivatives as inverse agonists of retinoid-related orphan receptor gamma (ROR gamma (t))” (GALDERMA RESEARCH & DEVELOPMENT, priority 2014, dated 2020)

Assays:
[1] = biological target: T1, ROR gamma ligand-binding domain (LBD) (hRORg) (Homo sapiens, UniProt P51449); experiment: GAL4-RORγ transactivation (luciferase reporter, HG5LN HeLa line); type: cell-based; conditions: HG5LN HeLa line with GAL4 DBD fused to ROR gamma LBD, 18 hours incubation
T1 construct: expressed in transfected cells; host or cells: HG5LN (HeLa line with GAL4-responsive luciferase reporter)
T1 sequence (P51449 269-508 limits assumed): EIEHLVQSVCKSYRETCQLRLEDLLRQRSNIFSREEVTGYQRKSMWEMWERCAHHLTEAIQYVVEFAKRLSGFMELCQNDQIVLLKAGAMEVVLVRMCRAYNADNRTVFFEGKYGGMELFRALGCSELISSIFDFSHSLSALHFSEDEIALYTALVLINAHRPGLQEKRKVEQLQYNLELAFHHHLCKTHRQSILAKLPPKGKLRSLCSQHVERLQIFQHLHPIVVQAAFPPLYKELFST
Outline: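 HeLa HG5LN cells stably carrying a GAL4-responsive luciferase reporter and GAL4 DBD–RORγ LBD fusion; seeded 4 h, then compound 18 h at 37 °C, 5% CO2. Luminescence normalized between DMSO and saturating reference-inhibitor controls as % inhibition; IC50 from 4-parameter logistic fit.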

[2] = test system: IL-17A secretion by CD4+ cells; experiment: IL-17A secretion by CD4+ cells (HTRF); type: cell-based; conditions: 96 h; human peripheral blood CD4+ cells activated with anti-CD3 and anti-CD28, 4 days incubation, IL-17A by HTRF; read-out: IC50 hCD4/IL17
Method: This model allows measurement of the effect of inhibitors on IL-17A secretion by CD4+ cells. The cells are frozen CD4+ cells (STEMCELL, #70026), isolated from peripheral human blood and activated with anti-CD3 and anti-CD28 antibodies. The amount of IL-17A secreted is measured by the TR-FRET (kit HTRF® Human Interleukin 17A (Cisbio, #64H17PEC)) technology.
The cells are rapidly thawed, resuspended in their culture medium (RPMI inactivated 10% FCS) supplemented with soluble anti-CD28 antibodies and seeded (100 000 cells/well) in 96-well plates precoated with anti-CD3 antibodies. The cells are then treated with the ranges of inhibitors to be tested (from 1000 nM to 0.05 nM, 0.1% DMSO). After 4 days of incubation, the HTRF signal is measured using a microplate reader (λexcitation=337 nm, λemission=620/665 nm). The ratios obtained (665/620) are normalized relative to the positive control (cells activated with anti-CD3 and anti-CD28, 0.1% DMSO). The IC50 values are calculated from a 4-parameter logistic model using the XLFit software (IDBS).

IC50 [1] [nM]	IC50 [2] [nM]	SMILES
< 100	< 100	CCc1ccc(N(CC(C)C)S(=O)(=O)c2ccc3c(c2)C(O)CCN3Cc2ccnc(F)c2)cc1 (stereo not drawn) [Compound 11, 1-(2-fluoropyridin-4-ylmethyl)-4-hydroxy-1,2,3,4-tetrahydroquinoline-6-sulfonic acid (4-ethylphenyl)isobutylamide]
< 100	< 100	CCc1ccc(N(CC(C)C)S(=O)(=O)c2ccc3c(c2)C(O)CCN3CC2(C)CCOCC2)cc1 (stereo not drawn) [Compound 14, 1-(4-methyltetrahydropyran-4-ylmethyl)-4-hydroxy-1,2,3,4-tetrahydroquinoline-6-sulfonic acid (4-ethylphenyl)isobutylamide]
100 to 1000	< 100	CCc1ccc(N(CC(C)C)S(=O)(=O)c2ccc3c(c2)C(O)CCN3CC2(F)CCOCC2)cc1 (stereo not drawn) [Compound 15, 1-(4-fluorotetrahydropyran-4-ylmethyl)-4-hydroxy-1,2,3,4-tetrahydroquinoline-6-sulfonic acid (4-ethylphenyl)isobutylamide]
100 to 1000	< 100	CCc1ccc(N(CC(C)C)S(=O)(=O)c2ccc3c(c2)C(O)CCN3CC2(C)COC2)cc1 (stereo not drawn) [Compound 19, 4-hydroxy-1-(3-methyloxetan-3-ylmethyl)-1,2,3,4-tetrahydroquinoline-6-sulfonic acid (4-ethylphenyl)isobutylamide]
< 100	< 100	CCc1ccc(N(CC(C)C)S(=O)(=O)c2ccc3c(c2)C(O)CCN3Cc2ccnnc2)cc1 (stereo not drawn) [Compound 29, 4-hydroxy-1-pyridazin-4-ylmethyl-1,2,3,4-tetrahydroquinoline-6-sulfonic acid (4-ethylphenyl)isobutylamide]
< 100	< 100	CCc1ccc(N(CC(C)C)S(=O)(=O)c2ccc3c(c2)C(O)CCN3C[C@H]2[C@@H]3COC[C@@H]32)cc1 (stereo partly drawn) [Compound 37, 4-hydroxy-1-[(1S,5R,6S)-1-(3-oxabicyclo[3.1.0]hex-6-yl)methyl]-1,2,3,4-tetrahydroquinoline-6-sulfonic acid (4-ethylphenyl)isobutylamide]
100 to 1000	< 100	CCc1ccc(N(CC(C)C)S(=O)(=O)c2ccc3c(c2)C(O)CCN3Cc2cn[nH]c2)cc1 (stereo not drawn) [Compound 45, 4-hydroxy-1-(1H-pyrazol-4-ylmethyl)-1,2,3,4-tetrahydroquinoline-6-sulfonic acid (4-ethylphenyl)isobutylamide]
100 to 1000	100 to 1000	CCc1ccc(N(CC(C)C)S(=O)(=O)c2ccc3c(c2)C(O)CCN3CC2CN(C(=O)OC)C2)cc1 (stereo not drawn) [Compound 46, methyl ester of 3-{6-[(4-ethylphenyl)isobutylsulfamoyl]-4-hydroxy-3,4-dihydro-2H-quinolin-1-ylmethyl}azetidine-1-carboxylic acid]
> 1000	> 1000	Cc1cc(C)c(N(CC(C)C)S(=O)(=O)c2ccc3c(c2)C(O)CCN3CC2CCOCC2)cn1 (stereo not drawn) [Compound 66, 4-hydroxy-1-(tetrahydropyran-4-ylmethyl)-1,2,3,4-tetrahydroquinoline-6-sulfonic acid (4,6-dimethylpyridin-3-yl)isobutylamide]
